EC50 data for 3 compounds are collected here from patent publication US20260125381A1, “NOVEL Kv3 CHANNEL MODULATORS” (Merck Sharp & Dohme LLC, priority 2022, published 2026).

Assay [1] concerns the target T1, Kv3.1 (Homo sapiens, UniProt P48547).
T1 sequence (P48547 1-511): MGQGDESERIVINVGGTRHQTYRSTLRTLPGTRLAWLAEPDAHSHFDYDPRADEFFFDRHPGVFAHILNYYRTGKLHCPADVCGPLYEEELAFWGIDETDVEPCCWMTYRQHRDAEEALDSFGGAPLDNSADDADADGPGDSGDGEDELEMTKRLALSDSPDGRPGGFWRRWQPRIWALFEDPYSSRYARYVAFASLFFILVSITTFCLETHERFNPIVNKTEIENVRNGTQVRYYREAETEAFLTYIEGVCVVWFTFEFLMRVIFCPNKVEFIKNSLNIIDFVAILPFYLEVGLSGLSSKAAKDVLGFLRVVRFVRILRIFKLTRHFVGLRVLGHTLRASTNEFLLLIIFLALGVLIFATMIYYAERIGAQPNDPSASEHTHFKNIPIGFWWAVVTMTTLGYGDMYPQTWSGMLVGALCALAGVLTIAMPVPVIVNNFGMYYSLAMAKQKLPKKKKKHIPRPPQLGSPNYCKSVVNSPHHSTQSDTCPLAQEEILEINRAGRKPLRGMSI
Nature of the assay: Automated whole cell patch clamp (Qube) on HEK cells overexpressing Kv3.1. The settings on record: stably transfected HEK cells overexpressing Kv3.1. Type of assay: cell-based. Details: expressed in transfected cells; host or cells: HEK cells, stably transfected. As to the method:
In Vitro Characterization of Positive Modulators of Kv3.1 in Automated Patch Clamp
Automated whole cell patch-clamp was performed on the Qube using stably transfected HEK cell lines overexpressing Kv3.1 channels. Stable cell lines expressing Kv3.2 or Kv3.4 were used for counter-screening. Cells were held at −70 mV. Two depolarizing test pulses to −15 mV (200 ms) and +20 mV (200 ms) were given at a frequency of 0.1 Hz. Kv3.1 current amplitude elicited by test pulses was measured before and after compound addition at steady state. Ten concentrations were tested for each molecule. Raw data from Qube experiments were retrieved from the Qube database and analyzed using the Sophion Analyzer software and DR FIT Spotfire analysis. Apparent compound EC50 values, maximum potentiation, and EC2xIK (effective concentration at which a doubling in K current was observed) were determined using dose response 4 parameter curve fitting.
(In general: Patch clamp records ionic current or voltage across a cell membrane.)

In assay [2] the target is T1, Kv3.1. The assay can be described thus: FLIPR based Tl+ influx assay for positive modulators of Kv3.1. The format is cell-based. Details: expressed in transfected cells; host or cells: ARF (assay-ready frozen) cells. To be noted: thallium influx, FLIPR Tetra, 1536-well. The procedure:
FLIPR Based Tl+ Influx Assay for Characterization of Positive Modulators of Kv3.1
Thallium influx assay was performed following manufacturer instruction with modifications. The major improvement was that the assay was miniaturized in 1536w assay plate to achieve ultrahigh throughput. The cell culture medium used for cell plating was the same medium mentioned above without selection antibiotics. Twenty to twenty four hours prior to the assay day, ARF cells in frozen vials were thawed in 37° C. water bath and washed once in the culture medium. The cell density was adjusted at 8.3×E5/ml and plated in 1536-w PDL coated plates (Aurora. US) at 4 μl/w, using Multidrop Combi (Thermo Fisher Scientific, Waltham, MA USA). Plates were then centrifuged at 300 g for two minutes for cells to achieve uniform settlement. The MicroClime plate lid (Labcyte Inc., San Jose, CA USA) was used to prevent evaporation from the edge wells and minimize the edge effect. Plates were incubated at 37° C., 5% CO2 overnight.
On the next day, the cell plates were further loaded with 3 μl/w of fluorescence dye solution containing all required components in the assay kit as instructed by the manufacturer protocol and incubated at room temperature for 60 min. Control and test compounds were then added into the cell plate by acoustic liquid transfer Echo (Labcyte Inc., San Jose, CA USA). After 10 min incubation with compounds, the cell plate was transferred to FLIPR Tetra platform (Molecular Devices, Sunnyvale, CA, USA) for recording fluorescence signal. The plate was recorded with excitation wavelength at 475-485 nm and emission wavelength at 510-545 nm. Data acquisition was taken at 1 Hz and completed in 130 seconds. After the first 10 s of recording, 3 μl of stimulus buffer was added into each well by liquid handler equipped in the FLIPR platform. The buffer contains 95 mM of Na2SO4 to maintain osmolarity, 7.5 mM of K2SO4 to depolarize membrane and activate the voltage gated Kv3.1 or 3.4 channels and 1 mM of Tl2SO4 to provide 2 mM Tl+ for Tl sensitive fluorescent signal. […]

Usually EC50 stands for the midpoint of the concentration-response curve. On to `Cc1ncc2[nH]c(=O)n(-c3cnc(Oc4cccc5c4C(C)(C)CO5)c(Cl)c3)c2n1` [Example 2, 9-(5-chloro-6-((3,3-dimethyl-2,3-dihydrobenzofuran-4-yl)oxy)pyridin-3-yl)-2-methyl-7,9-dihydro-8H-purin-8-one], for which the concentration giving a half-maximal response (EC50) on Kv3.1 [1] came out at 0.213 µM; at Kv3.1 [2], 0.146 µM.

`Cc1ncc2[nH]c(=O)n(-c3cnc(Oc4cccc5c4C(C)(C)CO5)c(Cl)c3C)c2n1` [Example 3, 9-(5-chloro-6-((3,3-dimethyl-2,3-dihydrobenzofuran-4-yl)oxy)-4-methylpyridin-3-yl)-2-methyl-7,9-dihydro-8H-purin-8-one] returned an EC50 at Kv3.1 [2] of 0.0312 µM.

For the compound `Cc1cccc(Oc2ccc(-n3c(=O)[nH]c4cccnc43)cn2)c1C` [Example 1, 3-(6-(2,3-dimethylphenoxy)pyridin-3-yl)-1,3-dihydro-2H-imidazo[4,5-b]pyridin-2-one], the results for the 50% effective concentration (EC50) on Kv3.1 [1] and at Kv3.1 [2] were 4.35 µM and 1.63 µM, respectively.
